System: LC3 in MOLM-13 cells
Assay: Autophagy activation: LC3 Western blot and confocal microscopy
Details: 48 hours in culture
Procedure: C MOLM-13 cells were treated as in FIG. 1A for 24 or 48 hours. […] D The same cells analysed by Western blot in C were also assessed by confocal microscopy analysis to highlight the LC3 dots (in green); the DNA is highlighted in blue by the Hoechst dye.
After being deposited on a slide via cytospin, the cells were fixed with 4% paraformaldehyde for 7 min, permeabilized with 0.1% TritonX100 in PBS/1% BSA for 5 min and stained with the primary anti-FLT3 (rabbit monoclonal, FLT3 (8F2), #3462, Cell Signaling Technologies, Danvers, MA, USA) or anti-calnexin (CNX, rabbit polyclonal AB22595, AbCam, Cambridge, UK) or anti-calreticulin (CRT, rabbit polyclonal AB2907, AbCam, Cambridge, UK) or anti-LC3 (LC3B Antibody #2775) antibodies, and then with an Alexa Fluor-488 secondary anti-rabbit IgG antibody Molecular Probes, ThermoFisher Scientific, Waltham, MA, USA); the DNA was detected with the TOPRO-3 (Molecular Probes, ThermoFisher Scientific, Waltham, MA, USA) or Hoechst dye (Molecular Probes, ThermoFisher Scientific, Waltham, MA, USA) and the slides were mounted with the Vectashield medium (Vector Laboratories, Burlingame, CA, USA). The images were acquired with a Leica confocal laser scanning microscope TCS SP2 at 40× magnification or with a Zeiss LSM900 at 63× magnification. The images were analysed using the Leica Confocal software (Leica, Milan, Italy) or the Zeiss Zen Blue software. […]

For `CC1=C(/C=C/C(C)=C/C=C/C(C)=C/C(=O)O)C(C)(C)CCC1` [R, all-trans retinoic acid], the “autophagy activation (LC3 activity, LC3-II/LC3-I)” value was “slight increase in LC3 activity”.
